Tested on: hypoxia-induced VEGF production in HeLa cells
Assay: cells
Format: cell-based, human
Details: Homo sapiens, HeLa

O=C(Oc1ccc(Cl)cc1)N1CCc2c([nH]c3ccc(Cl)cc23)[C@@H]1c1ccc(OC[C@H](O)CN2CCOCC2)cc1 [Compound 1070]
EC50: < 8 nM

O=C(Oc1ccc(Cl)cc1)N1CCc2c([nH]c3ccc(Cl)cc23)[C@@H]1c1ccc(OC[C@@H](O)CN2CCOCC2)cc1 [Compound 1071]
EC50: < 8 nM

C=CCOC(=O)N1CCc2c([nH]c3ccc(Cl)cc23)C1c1ccc(OCCCN2CCN(C)CC2)cc1 (stereo not drawn) [Compound 1072]
EC50: < 8 nM

CCOC(=O)N1CCc2c([nH]c3ccc(Cl)cc23)C1c1ccc(OCC(O)Cn2nccn2)cc1 (stereo not drawn) [Compound 1073]
EC50: < 8 nM

CC(C)OC(=O)N1CCc2c([nH]c3ccc(Cl)cc23)C1c1ccc(OCCCO)cc1 (stereo not drawn) [Compound 1074]
EC50: < 8 nM

O=C(Oc1ccccc1)N1CCc2c([nH]c3ccc(Cl)cc23)C1c1ccc(OCCCN2CCOCC2)cc1 (stereo not drawn) [Compound 1075]
EC50: 8 to 40 nM

CN1CCN(CCCOc2ccc(C3c4[nH]c5ccc(Cl)cc5c4CCN3C(=O)Oc3ccccc3)cc2)CC1 (stereo not drawn) [Compound 1076]
EC50: 40 to 200 nM

C=CCOC(=O)N1CCc2c([nH]c3ccc(Cl)cc23)C1c1ccc(OCCCN2CCOCC2)cc1 (stereo not drawn) [Compound 1079]
EC50: < 8 nM

C=CCOC(=O)N1CCc2c([nH]c3ccc(Cl)cc23)C1c1ccc(OCCCn2ccnn2)cc1 (stereo not drawn) [Compound 1080]
EC50: < 8 nM

C=CCOC(=O)N1CCc2c([nH]c3ccc(Cl)cc23)C1c1ccc(OCCCn2nccn2)cc1 (stereo not drawn) [Compound 1081]
EC50: < 8 nM

COCCOC(=O)N1CCc2c([nH]c3ccc(Cl)cc23)C1c1ccc(OCCCn2ccnn2)cc1 (stereo not drawn) [Compound 1083]
EC50: 8 to 40 nM

COCCOC(=O)N1CCc2c([nH]c3ccc(Cl)cc23)C1c1ccc(OCCCn2nccn2)cc1 (stereo not drawn) [Compound 1084]
EC50: 8 to 40 nM

CCOC(=O)N1CCc2c([nH]c3ccc(Cl)cc23)C1c1ccc(OCC(O)CNC(=O)COC)cc1 (stereo not drawn) [Compound 1085]
EC50: < 8 nM

COc1cc(C2c3[nH]c4ccc(Cl)cc4c3CCN2C(=O)Oc2ccc(Cl)cc2)ccc1OCCN1CCOCC1 (stereo not drawn) [Compound 1092]
EC50: 8 to 40 nM

COc1cc(C2c3[nH]c4ccc(Cl)cc4c3CCN2C(=O)Oc2ccc(Cl)cc2)ccc1OCCCN1CCOCC1 (stereo not drawn) [Compound 1093]
EC50: 8 to 40 nM

COc1cc(C2c3[nH]c4ccc(Cl)cc4c3CCN2C(=O)Oc2ccc(Cl)cc2)ccc1OCCCCN1CCOCC1 (stereo not drawn) [Compound 1094]
EC50: 8 to 40 nM

COc1ccc(C2c3[nH]c4ccc(Cl)cc4c3CCN2C(=O)Oc2ccc(Cl)cc2)cc1OCCN1CCOCC1 (stereo not drawn) [Compound 1095]
EC50: 200 to 1000 nM

COc1ccc(C2c3[nH]c4ccc(Cl)cc4c3CCN2C(=O)Oc2ccc(Cl)cc2)cc1OCCCN1CCOCC1 (stereo not drawn) [Compound 1096]
EC50: 200 to 1000 nM

COc1ccc(C2c3[nH]c4ccc(Cl)cc4c3CCN2C(=O)Oc2ccc(Cl)cc2)cc1OCCCCN1CCOCC1 (stereo not drawn) [Compound 1097]
EC50: 40 to 200 nM

O=C(Oc1ccc(Cl)cc1)N1CCc2c([nH]c3ccc(Cl)cc23)C1c1ccc(OCCCN2CCC(CO)C2)cc1 (stereo not drawn) [Compound 1098]
EC50: 8 to 40 nM

CN1CCC(COc2ccc(C3c4[nH]c5ccc(Cl)cc5c4CCN3C(=O)Oc3ccc(Cl)cc3)cc2)CC1 (stereo not drawn) [Compound 1099]
EC50: 8 to 40 nM

COC(=O)N1CCc2c([nH]c3ccc(Cl)cc23)C1c1ccc(OCCCN2CCOCC2)cc1 (stereo not drawn) [Compound 1100]
EC50: 8 to 40 nM

COC(=O)N1CCc2c([nH]c3ccc(Cl)cc23)C1c1ccc(OCCCN2CCN(C)CC2)cc1 (stereo not drawn) [Compound 1101]
EC50: 40 to 200 nM

CC(C)OC(=O)N1CCc2c([nH]c3ccc(Cl)cc23)C1c1ccc(OCCCN2CCOCC2)cc1 (stereo not drawn) [Compound 1102]
EC50: < 8 nM

CC(C)OC(=O)N1CCc2c([nH]c3ccc(Cl)cc23)C1c1ccc(OCCCN2CCN(C)CC2)cc1 (stereo not drawn) [Compound 1103]
EC50: 8 to 40 nM

CC(C)COC(=O)N1CCc2c([nH]c3ccc(Cl)cc23)C1c1ccc(OCCCN2CCN(C)CC2)cc1 (stereo not drawn) [Compound 1104]
EC50: 8 to 40 nM

CCCOC(=O)N1CCc2c([nH]c3ccc(Cl)cc23)C1c1ccc(OCCCN2CCOCC2)cc1 (stereo not drawn) [Compound 1105]
EC50: < 8 nM

O=C(OCc1ccccc1)N1CCc2c([nH]c3ccc(Cl)cc23)C1c1ccc(OCCCN2CCOCC2)cc1 (stereo not drawn) [Compound 1106]
EC50: < 8 nM

O=C(OCc1ccccc1)N1CCc2c([nH]c3ccc(Cl)cc23)C1c1ccc(OCCCn2ccnn2)cc1 (stereo not drawn) [Compound 1107]
EC50: < 8 nM

COc1ccc(OC(=O)N2CCc3c([nH]c4ccc(Cl)cc34)C2c2ccc(OCCCN3CCN(C)CC3)cc2)cc1 (stereo not drawn) [Compound 1108]
EC50: 8 to 40 nM

COCCOC(=O)N1CCc2c([nH]c3ccc(Cl)cc23)C1c1ccc(OCCCO)cc1 (stereo not drawn) [Compound 1109]
EC50: < 8 nM

O=C(Oc1ccc(Cl)cc1)N1CCc2c([nH]c3ccc(Cl)cc23)C1c1ccc(OCCCO)cc1 (stereo not drawn) [Compound 1111]
EC50: < 8 nM

CCOC(=O)N1CCc2c([nH]c3ccc(Cl)cc23)C1c1cccc(OCCCN2CCN(C)CC2)c1 (stereo not drawn) [Compound 1112]
EC50: > 1000 nM

CN1CCN(CCCOc2cccc(C3c4[nH]c5ccc(Cl)cc5c4CCN3C(=O)Oc3ccc(F)cc3)c2)CC1 (stereo not drawn) [Compound 1113]
EC50: 200 to 1000 nM

CCOC(=O)N1CCc2c([nH]c3ccc(Cl)cc23)C1c1cccc(OCCCN2CCOCC2)c1 (stereo not drawn) [Compound 1114]
EC50: 8 to 40 nM

O=C(Oc1ccc(F)cc1)N1CCc2c([nH]c3ccc(Cl)cc23)C1c1cccc(OCCCN2CCOCC2)c1 (stereo not drawn) [Compound 1115]
EC50: 8 to 40 nM

CCOC(=O)N1CCc2c([nH]c3ccc(Cl)cc23)C1c1cccc(OCCCN2CCSCC2)c1 (stereo not drawn) [Compound 1116]
EC50: 8 to 40 nM

O=C(Oc1ccc(F)cc1)N1CCc2c([nH]c3ccc(Cl)cc23)C1c1cccc(OCCCN2CCSCC2)c1 (stereo not drawn) [Compound 1117]
EC50: 8 to 40 nM

CCOC(=O)N1CCc2c([nH]c3ccc(Cl)cc23)C1c1cccc(OCCCN(CCOC)CCOC)c1 (stereo not drawn) [Compound 1118]
EC50: 200 to 1000 nM

COCCN(CCCOc1cccc(C2c3[nH]c4ccc(Cl)cc4c3CCN2C(=O)Oc2ccc(F)cc2)c1)CCOC (stereo not drawn) [Compound 1119]
EC50: 40 to 200 nM

CCOC(=O)N1CCc2c([nH]c3ccc(Cl)cc23)C1c1cccc(OCCCN(C)CCOC)c1 (stereo not drawn) [Compound 1120]
EC50: 200 to 1000 nM

COCCN(C)CCCOc1cccc(C2c3[nH]c4ccc(Cl)cc4c3CCN2C(=O)Oc2ccc(F)cc2)c1 (stereo not drawn) [Compound 1121]
EC50: > 1000 nM

CCOC(=O)N1CCc2c([nH]c3ccc(Cl)cc23)C1c1cccc(OCCCn2ccnc2)c1 (stereo not drawn) [Compound 1122]
EC50: > 1000 nM

CCOC(=O)N1CCc2c([nH]c3ccc(Cl)cc23)C1c1cccc(OCCCn2ccnn2)c1 (stereo not drawn) [Compound 1124]
EC50: 200 to 1000 nM

COc1cc(C2c3[nH]c4ccc(Cl)cc4c3CCN2C(=O)Oc2ccccc2)ccc1OCCCN1CCOCC1 (stereo not drawn) [Compound 1130]
EC50: 8 to 40 nM

COc1ccc(OC(=O)N2CCc3c([nH]c4ccc(Cl)cc34)C2c2ccc(OCCCN3CCOCC3)c(OC)c2)cc1 (stereo not drawn) [Compound 1131]
EC50: 8 to 40 nM

COc1cc(C2c3[nH]c4ccc(Cl)cc4c3CCN2C(=O)Oc2ccc(C)cc2)ccc1OCCCN1CCOCC1 (stereo not drawn) [Compound 1132]
EC50: 8 to 40 nM

COc1cc(C2c3[nH]c4ccc(Cl)cc4c3CCN2C(=O)Oc2ccc(F)cc2)ccc1OCCCN1CCOCC1 (stereo not drawn) [Compound 1133]
EC50: < 8 nM

Cc1ccc(C(=O)N2CCc3c([nH]c4ccc(Cl)cc34)C2c2ccc(OCCCn3cncn3)cc2)cc1 (stereo not drawn) [Compound 1135]
EC50: 8 to 40 nM

O=C(c1ccc(Cl)cc1)N1CCc2c([nH]c3ccc(Cl)cc23)C1c1ccc(OCCCN2CCOCC2)cc1 (stereo not drawn) [Compound 1136]
EC50: 40 to 200 nM

O=C(c1ccc(F)cc1)N1CCc2c([nH]c3ccc(Cl)cc23)C1c1ccc(OCCCn2cncn2)cc1 (stereo not drawn) [Compound 1138]
EC50: 8 to 40 nM
